Patent US20130090327A1, “Inhibitors of Protein Tyrosine Kinase Activity” (METHYLGENE INC., priority 2011, published 2013)
Values joined by “and” are separate entries in the source; they are usually repeats but may differ in a detail not shown here. Equal values may be shown once.

Assays:
[1] = system: choroidal neovascularization (CNV); assay: In Vivo Choroidal Neovascularization (CNV) Model; set-up: species or system Brown-Norway rats; conditions: for CNV area, average: group average, Day 10, rat; for CNV area, individual animal: injection on Day 3, measured Day 10, rat; for CNV area % of control / inhibition (CNV area): versus vehicle group, rat
Source text: In Vivo Choroidal Neovascularization (CNV) Model
This test measures the capacity of compounds to inhibit CNV progression. CNV is the main cause of severe vision loss in patients suffering from age-related macular degeneration (AMD).
Male Brown-Norway rats (Charles River Japan Co., Ltd.) were used in these studies.
Rats were anesthetized by intraperitoneal injection of pentobarbital, and the right pupil was dilated with 0.5% tropicamide and 0.5% phenylephrine hydrochloride. The right eye received 6 laser burns between retinal vessels using a slit lamp delivery system of Green laser Photocoagulator (Nidex Inc., Japan), and microscope slide glass with 10 mg/mL hyaluronic acid (SIGMA) used as a contact lens. The laser power was 200 mW for 0.1 second and spot diameter was 100 μm. At the time of laser burn, bubble production was observed; which is an indication of rupture of Bruch's membrane which is important for CNV generation.
After animals were anesthetized, and the right pupil dilated (as mentioned above), the right eye of the animal received the compound or vehicle by an injection (3 μL/eye) at doses of 0.3 to 30 nmol/eye on Day 3. The compounds were dissolved or suspended in CBS, PBS, or other adequate vehicles before injection.
On Day 10, the animals were anesthetized with ether, and high molecular weight fluorescein isothiocyanate (FITC)-dextran (SIGMA, 2×106 MW) was injected via a tail vein (20 mg/rat). About 30 min after FITC-dextran injection, animals were euthanized by ether or carbon dioxide, and the eyes were removed and fixed with 10% formaline neutral buffer solution. After over 1 hour of fixation, RPE-choroid-sclera flat mounts were obtained by removing comea, lens and retina from the eyeballs. The flat mounts were mounted in 50% glycerol on a microscope slide, and the portion burned by laser was photographed using a fluorescence microscope (Nikon Corporation, excitation filter: 465-495 nm, absorption filter: 515-555 nm). The CNV area was obtained by measurement of hyper-fluorescence area observed on the photograph using Scion image.
The average CNV area of 6 burns was used as an individual value of CNV area, and the average CNV area of compound treated group was compared with that of the vehicle-treated group.

VEGFR2 (KDR) = target: T1, VEGFR2 (KDR) (Homo sapiens, UniProt P35968); assay: In Vitro Receptor Tyrosine Kinase Assay (VEGF Receptor KDR); assay type: biochemical; conditions: recombinant GST-VEGFR2 806-1356, DELFIA assay, ATP 0.6 uM, enzyme 5 nM; read-out: VEGFR_IC50_UM
T1 construct: made in house; host or cells: Sf9 cells (Spodoptera frugiperda), baculovirus (Bac-to-Bac)
T1 sequence (P35968 806-1356): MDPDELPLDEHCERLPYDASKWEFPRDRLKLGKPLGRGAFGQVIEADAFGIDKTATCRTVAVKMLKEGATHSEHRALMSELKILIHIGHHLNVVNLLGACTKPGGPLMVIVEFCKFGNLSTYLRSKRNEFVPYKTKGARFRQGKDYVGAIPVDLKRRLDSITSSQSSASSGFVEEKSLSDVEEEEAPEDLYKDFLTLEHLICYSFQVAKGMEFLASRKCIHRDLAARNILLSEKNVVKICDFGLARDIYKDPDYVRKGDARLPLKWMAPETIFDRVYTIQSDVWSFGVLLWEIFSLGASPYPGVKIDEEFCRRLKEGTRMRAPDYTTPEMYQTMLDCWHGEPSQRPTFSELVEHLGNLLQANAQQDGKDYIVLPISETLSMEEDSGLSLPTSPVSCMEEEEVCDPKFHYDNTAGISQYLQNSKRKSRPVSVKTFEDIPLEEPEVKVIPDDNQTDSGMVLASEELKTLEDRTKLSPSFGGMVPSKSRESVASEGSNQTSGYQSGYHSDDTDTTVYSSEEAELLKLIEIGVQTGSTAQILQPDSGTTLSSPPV
Source text: In Vitro Receptor Tyrosine Kinase Assay (VEGF Receptor KDR)
This test measures the ability of compounds to inhibit the enzymatic activity of recombinant human VEGF receptor enzymatic activity.
A 1.6-kb cDNA corresponding to the catalytic domain of VEGFR2 (KDR) (Genbank accession number AF035121 amino acid 806 to 1356) is cloned into the Pst I site of the pDEST20 Gateway vector (Invitrogen) for the production of a GST-tagged version of that enzyme. This construct is used to generate recombinant baculovirus using the Bac-to-Bac™ system according to the manufacturer's instructions (Invitrogen).
The GST-VEGFR2806-1356 protein is expressed in Sf9 cells (Spodoptera frugiperda) upon infection with recombinant baculovirus construct. Briefly, Sf9 cells grown in suspension and maintained in serum-free medium (Sf900 II supplemented with gentamycin) at a cell density of about 2×10^6 cells/ml are infected with the above-mentioned viruses at a multiplicity of infection (MOI) of 0.1 during 72 hours at 27° C. with agitation at 120 rpm on a rotary shaker. Infected cells are harvested by centrifugation at 398 g for 15 min. Cell pellets are frozen at […] until purification is performed.
All steps described in cell extraction and purification are performed at 4° C. Frozen Sf9 cell pellets infected with the GST-VEGFR2806-1356 recombinant baculovirus are thawed and gently resuspended in Buffer A (PBS pH 7.3 supplemented with 1 μg/ml pepstatin, 2 μg/ml Aprotinin and leupeptin, 50 μg/ml PMSF, 50 μg/ml TLCK and 10 μM E64 and 0.5 mM DTT) using 3 ml of buffer per gram of cells. Suspension is Dounce homogenized and 1% Triton X-100 is added to the homogenate after which it is centrifuged at 22500 g, 30 min., 4° C. The supernatant (cell extract) is used as starting material for purification of GST-VEGFR2806-1356.
The supernatant is loaded onto a GST-agarose column (Sigma) equilibrated with PBS pH 7.3. Following a four column volume (CV) wash with PBS pH 7.3+1% Triton X-100 and 4 CV wash with buffer B (50 mM Tris pH 8.0, 20% glycerol and 100 mM NaCl), bound proteins are step eluted with 5 CV of buffer B supplemented with 5 mM DTT and 15 mM glutathion. GST-VEGFR2806-1356 enriched fractions from this chromatography step are pooled based on U.V. trace i.e. fractions with high O.D.280. Final GST-VEGFR2806-1356 protein preparations concentrations are about 0.7 mg/ml with purity approximating 70%. Purified GST-VEGFR2806-1356 protein stocks are aliquoted and frozen at −80° C. prior to use in enzymatic assay.
Inhibition of VEGFR/KDR is measured in a DELFIA™ assay (Perkin Elmer). The substrate poly(Glu4,Tyr) is immobilized onto black high-binding polystyrene 96-well plates. The coated plates are washed and stored at 4° C. During the assay, the enzyme is pre-incubated with inhibitor and Mg-ATP on ice in polypropylene 96-well plates for 4 minutes, and then transferred to the coated plates. The subsequent kinase reaction takes place at 30° C. for 10-minutes. ATP concentrations in the assay are 0.6 uM for VEGFR/KDR (2× the Km). Enzyme concentration is 5 nM. After incubation, the kinase reactions are quenched with EDTA and the plates are washed. Phosphorylated product is detected by incubation with Europium-labeled anti-phosphotyrosine MoAb. After washing the plates, bound MoAb is detected by time-resolved fluorescence in a Gemini SpectraMax reader (Molecular Devices). Compounds are evaluated over a range of concentrations, and IC50 values (concentration of compounds giving 50% inhibition of enzymatic activity) are determined.

COCCN(Cc1ccc(-c2cc3nccc(Oc4ccc(Nc5nc6cc(Cl)ccc6[nH]5)cc4F)c3s2)nc1)C(C)=O [Compound 64]
CNV area, average ([1]; 0.3 nmol/eye): 0.085 mm^2
CNV area, individual animal ([1]; 0.3 nmol/eye): 0.091 mm^2 and 0.094 mm^2 and 0.045 mm^2 and 0.050 mm^2 and 0.116 mm^2 and 0.147 mm^2 and 0.069 mm^2 and 0.084 mm^2 and 0.072 mm^2
CNV area % of control ([1]; 0.3 nmol/eye): 105.6%
inhibition (CNV area) ([1]; 0.3 nmol/eye): −5.6
CNV area, average ([1]; 1 nmol/eye): 0.077 mm^2
CNV area, individual animal ([1]; 1 nmol/eye): 0.045 mm^2 and 0.092 mm^2 and 0.101 mm^2 (2×) and 0.088 mm^2 and 0.061 mm^2 and 0.109 mm^2 and 0.056 mm^2 and 0.040 mm^2
CNV area % of control ([1]; 1 nmol/eye): 95.3%
inhibition (CNV area) ([1]; 1 nmol/eye): 4.7
CNV area, average ([1]; 3 nmol/eye): 0.065 mm^2
CNV area, individual animal ([1]; 3 nmol/eye): 0.070 mm^2 (2×) and 0.019 mm^2 and 0.081 mm^2 and 0.084 mm^2 and 0.062 mm^2 and 0.056 mm^2 and 0.086 mm^2 and 0.054 mm^2
CNV area % of control ([1]; 3 nmol/eye): 80.0%
inhibition (CNV area) ([1]; 3 nmol/eye): 20.0
CNV area, average ([1]; 10 nmol/eye): 0.045 mm^2
CNV area, individual animal ([1]; 10 nmol/eye): 0.030 mm^2 and 0.003 mm^2 and 0.051 mm^2 and 0.058 mm^2 and 0.064 mm^2 and 0.035 mm^2 and 0.097 mm^2 and 0.039 mm^2 and 0.032 mm^2
CNV area % of control ([1]; 10 nmol/eye): 56.2%
inhibition (CNV area) ([1]; 10 nmol/eye): 43.8
CNV area, average ([1]; 30 nmol/eye): 0.036 mm^2
CNV area, individual animal ([1]; 30 nmol/eye): 0.047 mm^2 and 0.031 mm^2 and 0.036 mm^2 and 0.048 mm^2 and 0.037 mm^2 and 0.027 mm^2 (2×) and 0.051 mm^2 and 0.019 mm^2
CNV area % of control ([1]; 30 nmol/eye): 44.4%
inhibition (CNV area) ([1]; 30 nmol/eye): 55.6
IC50 (VEGFR2 (KDR)): 31 nM

COCCN(Cc1ccc(-c2cc3nccc(Oc4ccc(NC(=O)NC5COC5)cc4F)c3s2)nc1)C(=O)OC(C)(C)C [Compound 104]
IC50 (VEGFR2 (KDR)): 197 nM

O=C(Nc1ccc(Oc2ccnc3cc(-c4ccc(CN5CCOC5=O)cn4)sc23)c(F)c1)NC1COC1 [Compound 105]
IC50 (VEGFR2 (KDR)): 25 nM

COCCN(Cc1ccc(-c2cc3nccc(Oc4ccc(NC(=O)NC5COC5)cc4F)c3s2)nc1)C(C)=O [Compound 106]
IC50 (VEGFR2 (KDR)): 12 nM

CN(C)[C@H]1CCN(C(=O)c2cc3nccc(Oc4ccc(NC(=O)NC5COC5)cc4F)c3s2)C1 [Compound 107]
IC50 (VEGFR2 (KDR)): 56 nM

COCCN(Cc1ccc(-c2cc3nccc(Oc4ccc(NC(=O)NC5COC5)c(F)c4F)c3s2)nc1)C(=O)OC(C)(C)C [Compound 108]
IC50 (VEGFR2 (KDR)): 31 nM

COCCN(Cc1ccc(-c2cc3nccc(Oc4ccc(NC(=O)NC5COC5)c(F)c4F)c3s2)nc1)C(C)=O [Compound 109]
IC50 (VEGFR2 (KDR)): 11 nM

CC(C)(C)OC(=O)N1CC(NC(=O)Nc2ccc(Oc3ccnc4cc(-c5ccc(CN6CCCC6=O)cn5)sc34)c(F)c2)C1 [Compound 110]
IC50 (VEGFR2 (KDR)): 17 nM

CC(C)(C)OC(=O)N1CC(NC(=O)Nc2ccc(Oc3ccnc4cc(-c5ccc(CN6CCOC6=O)cn5)sc34)c(F)c2)C1 [Compound 111]
IC50 (VEGFR2 (KDR)): 59 nM

CC(=O)N1CC(NC(=O)Nc2ccc(Oc3ccnc4cc(-c5ccc(CN6CCCC6=O)cn5)sc34)c(F)c2)C1 [Compound 112, 1-(1-Acetylazetidin-3-yl)-3-(3-fluoro-4-(2-(5-((2-oxopyrrolidin-1-yl)methyl)pyridin-2-yl)thieno[3,2-b]pyridin-7-yloxy)phenyl)urea]
IC50 (VEGFR2 (KDR)): 37 nM

CC(=O)N1CC(NC(=O)Nc2ccc(Oc3ccnc4cc(-c5ccc(CN6CCOC6=O)cn5)sc34)c(F)c2)C1 [Compound 113, 1-(1-Acetylazetidin-3-yl)-3-(3-fluoro-4-(2-(5-((2-oxooxazolidin-3-yl)methyl)pyridin-2-yl)thieno[3,2-b]pyridin-7-yloxy)phenyl)urea]
IC50 (VEGFR2 (KDR)): 95 nM
